Among the data in ChEMBL document CHEMBL5331063, “Recent advances of β-catenin small molecule inhibitors for cancer therapy: Current development and future perspectives” (Eur J Med Chem, 2022) are IC50, Activity and Ki values, retold here.

Series [1] concerns the target T1, TCF4-CTNNB1 complex (Homo sapiens, UniProt P35222+Q9NQB0).
T1 sequence (P35222 whole entry): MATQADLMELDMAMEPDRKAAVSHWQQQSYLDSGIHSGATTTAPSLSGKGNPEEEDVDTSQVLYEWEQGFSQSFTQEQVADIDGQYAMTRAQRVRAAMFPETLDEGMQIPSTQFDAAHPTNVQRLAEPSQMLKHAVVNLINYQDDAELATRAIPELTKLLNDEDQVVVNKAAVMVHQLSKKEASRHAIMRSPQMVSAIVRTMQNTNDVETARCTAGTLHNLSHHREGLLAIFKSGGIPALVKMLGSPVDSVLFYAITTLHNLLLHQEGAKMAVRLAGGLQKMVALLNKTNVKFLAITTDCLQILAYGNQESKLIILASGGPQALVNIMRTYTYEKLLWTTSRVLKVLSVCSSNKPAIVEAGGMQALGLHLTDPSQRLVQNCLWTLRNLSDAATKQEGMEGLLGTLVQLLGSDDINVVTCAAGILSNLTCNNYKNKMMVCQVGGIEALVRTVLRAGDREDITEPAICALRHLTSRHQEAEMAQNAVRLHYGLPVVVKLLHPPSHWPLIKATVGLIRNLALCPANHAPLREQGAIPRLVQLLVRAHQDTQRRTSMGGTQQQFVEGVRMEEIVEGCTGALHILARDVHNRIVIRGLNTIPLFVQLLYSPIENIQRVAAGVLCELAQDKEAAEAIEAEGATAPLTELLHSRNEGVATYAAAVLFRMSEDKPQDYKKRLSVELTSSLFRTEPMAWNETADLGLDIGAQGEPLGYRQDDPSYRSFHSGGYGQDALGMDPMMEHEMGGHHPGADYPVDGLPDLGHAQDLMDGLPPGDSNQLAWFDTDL
T1 sequence (P15884 whole entry): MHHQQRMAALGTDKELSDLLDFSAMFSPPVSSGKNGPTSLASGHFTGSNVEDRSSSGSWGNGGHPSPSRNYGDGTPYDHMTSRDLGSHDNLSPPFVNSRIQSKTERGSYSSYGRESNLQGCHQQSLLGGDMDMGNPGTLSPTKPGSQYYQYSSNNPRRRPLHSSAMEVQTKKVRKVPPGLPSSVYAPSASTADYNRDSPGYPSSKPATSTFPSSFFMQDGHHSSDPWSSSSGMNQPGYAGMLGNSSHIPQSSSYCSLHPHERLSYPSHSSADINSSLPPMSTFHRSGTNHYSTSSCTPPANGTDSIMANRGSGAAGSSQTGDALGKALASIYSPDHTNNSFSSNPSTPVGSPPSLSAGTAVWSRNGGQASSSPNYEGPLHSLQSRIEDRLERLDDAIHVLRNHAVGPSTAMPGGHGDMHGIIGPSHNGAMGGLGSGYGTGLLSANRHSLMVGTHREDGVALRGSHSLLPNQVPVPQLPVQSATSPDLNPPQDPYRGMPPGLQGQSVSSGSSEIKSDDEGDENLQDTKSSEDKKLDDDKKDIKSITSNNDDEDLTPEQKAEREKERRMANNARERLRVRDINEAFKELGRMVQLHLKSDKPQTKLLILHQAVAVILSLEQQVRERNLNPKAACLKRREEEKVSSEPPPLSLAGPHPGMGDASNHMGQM
Put plainly: Inhibition of beta-Catenin/GST-tagged TCF4 protein-protein interaction in human HCT-116 cells incubated for 24 hrs by immunoprecipitation assay. Format: cell-based.

Series [2] deals with SW480. In words: Antiproliferative activity against human SW480 cells assessed as inhibition of cell growth by MTS assay. The format is functional, cell-based.
For a further series, the system named is HT-29. In words: Antiproliferative activity against human HT-29 cells assessed as inhibition of cell growth by MTS assay. Format: functional, cell-based.
The subject of series [3] is HCT-116. In words: Antiproliferative activity against human HCT-116 cells assessed as inhibition of cell growth by MTS assay. The format is functional, cell-based. On the technique in general: Formazan colour is commonly taken as a measure of viable cells.
The next series concerns NCM460. In words: Cytotoxicity against human NCM460 cells incubated for 48 hrs by MTT assay. Format: toxicity, cell-based. As to conditions: ncm460, 48 h.
Series [4] deals with HCT-116. Put plainly: Cytotoxicity against human HCT-116 cells incubated for 48 hrs by MTT assay. The format is functional.
In series [5] the test system is SW480. Put plainly: Cytotoxicity against human SW480 cells incubated for 48 hrs by MTT assay. The format is functional.
In series [6] the target is T1, TCF4-CTNNB1 complex. Put plainly: Inhibition of human beta-Catenin/GST-tagged TCF4 (unknown origin) protein-protein interaction incubated for 2 hrs by ELISA assay. The format is protein-complex assay. Background: An ELISA detects its analyte on a solid surface through an enzyme-linked reagent.
Series [7] has as its target T2, TCF4-CTNNB1 complex (Homo sapiens, UniProt P15884+P35222).
T2 sequence (P35222 whole entry): T1 sequence (P35222 whole entry)
T2 sequence (P15884 whole entry): T1 sequence (P15884 whole entry)
Put plainly: Inhibition of beta-Catenin (301 to 670 residues)/TCF4 protein-protein interaction in human HCT-116 cells incubated for 20 hrs by TOPFLASH luciferase reporter assay. Format: cell-based.

Series [8] deals with T3, beta-catenin-B-cell lymphoma 9 protein complex (Homo sapiens, UniProt O00512+P35222).
T3 sequence (P35222 whole entry): T1 sequence (P35222 whole entry)
T3 sequence (O00512 whole entry): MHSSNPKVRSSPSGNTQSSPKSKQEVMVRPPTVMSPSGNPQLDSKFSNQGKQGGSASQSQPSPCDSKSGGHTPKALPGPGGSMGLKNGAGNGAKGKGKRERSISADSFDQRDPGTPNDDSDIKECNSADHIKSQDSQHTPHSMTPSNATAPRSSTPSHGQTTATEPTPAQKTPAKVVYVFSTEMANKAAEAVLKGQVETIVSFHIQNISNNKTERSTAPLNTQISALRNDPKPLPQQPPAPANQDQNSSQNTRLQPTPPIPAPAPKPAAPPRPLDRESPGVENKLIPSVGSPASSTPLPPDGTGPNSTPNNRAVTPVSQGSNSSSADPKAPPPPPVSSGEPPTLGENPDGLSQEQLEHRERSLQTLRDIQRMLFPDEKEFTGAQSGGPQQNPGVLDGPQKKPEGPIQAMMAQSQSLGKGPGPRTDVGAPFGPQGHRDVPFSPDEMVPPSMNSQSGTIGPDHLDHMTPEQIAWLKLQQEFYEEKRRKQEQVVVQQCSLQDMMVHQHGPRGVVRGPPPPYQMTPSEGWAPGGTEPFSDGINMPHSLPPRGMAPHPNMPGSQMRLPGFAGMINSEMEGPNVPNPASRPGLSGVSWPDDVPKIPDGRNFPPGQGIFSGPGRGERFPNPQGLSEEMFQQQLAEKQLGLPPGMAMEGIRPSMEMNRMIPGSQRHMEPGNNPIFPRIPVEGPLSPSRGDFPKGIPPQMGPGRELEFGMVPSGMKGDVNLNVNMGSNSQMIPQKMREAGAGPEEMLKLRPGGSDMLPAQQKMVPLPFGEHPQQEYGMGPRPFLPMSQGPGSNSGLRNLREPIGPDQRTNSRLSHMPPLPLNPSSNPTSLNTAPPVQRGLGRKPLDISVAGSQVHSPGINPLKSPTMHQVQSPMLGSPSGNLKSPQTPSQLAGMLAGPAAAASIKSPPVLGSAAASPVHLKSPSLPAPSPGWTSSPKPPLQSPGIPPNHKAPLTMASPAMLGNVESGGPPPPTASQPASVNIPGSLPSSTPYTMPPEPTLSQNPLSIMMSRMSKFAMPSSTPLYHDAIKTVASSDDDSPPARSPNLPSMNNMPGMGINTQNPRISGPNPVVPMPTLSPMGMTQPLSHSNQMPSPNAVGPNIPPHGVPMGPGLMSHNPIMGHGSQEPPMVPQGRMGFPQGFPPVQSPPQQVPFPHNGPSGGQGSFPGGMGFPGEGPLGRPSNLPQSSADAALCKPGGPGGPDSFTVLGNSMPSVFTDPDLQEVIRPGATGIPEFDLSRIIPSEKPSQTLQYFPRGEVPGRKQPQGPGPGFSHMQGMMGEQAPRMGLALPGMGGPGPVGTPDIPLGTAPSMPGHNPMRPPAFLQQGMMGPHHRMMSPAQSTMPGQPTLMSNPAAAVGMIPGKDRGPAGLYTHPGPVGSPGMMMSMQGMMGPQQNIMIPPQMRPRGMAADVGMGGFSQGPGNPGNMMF
Put plainly: Inhibition of Flag-tagged beta-Catenin (unknown origin)/Flag-tagged BCL9 (unknown origin) protein-protein interaction assessed as inhibition constant by ELISA assay. Format: protein-complex assay.

In general, IC50 refers to the concentration needed to halve the response being measured. On TCF4-CTNNB1 complex [1], `COc1c(CC(C)OC(=O)Oc2ccc(O)cc2)c2c3c(CC(C)OC(=O)c4ccccc4)c(OC)c(=O)c4c(O)cc(OC)c(c5c(OC)cc(O)c(c1=O)c52)c43` (configuration not stated) showed an IC50 of 10 µM.
Regarding `CCOC(=O)CC[C@H](NC(=O)[C@H](CC(=O)OCC)NC(=O)[C@H](Cc1ccc2ccccc2c1)NC(=O)Cc1cc2cc(Cl)ccc2[nH]1)C(=O)OC`, the IC50 came to 28.7 µM with SW480 [2], 10 µM with HT-29 and 10 µM in the series with HCT-116 [3].
For the compound `C=C1C(=O)C23[C@H](O)C[C@@H]4C(C)(C)[C@@H](OC(C)=O)CC[C@@]4(C)[C@@H]2[C@@H]2O[C@@H]2C1[C@H]3O` (some centres not stated), the Activity is listed as 10% in the series with NCM460, more than 95% in the series on HCT-116 [4] and more than 95% in the series with SW480 [5].
For the compound `COC(=O)c1c(C)cc2c(c1O)[C@]1(O)C(=O)c3cc4c(c(O)c3C(=O)[C@]1(OC)[C@H](O)C2)C(=O)C=C(N[C@@H]1O[C@H](C)[C@@H](OC)[C@H](O)[C@@H]1OC)C4=O`, the half-inhibitory concentration (IC50) at TCF4-CTNNB1 complex [6] is 0.64 µM.
`COC(=O)c1cccc(NS(=O)(=O)c2ccc(OC)cc2)c1` registered a half-maximal inhibitory concentration (IC50) against TCF4-CTNNB1 complex [7] of 0.53 µM.
A word on the Ki: it is the equilibrium dissociation constant of an inhibitor or competing ligand from its target. In the case of `CC(C)c1cc2c(c(O)c1O)[C@@]1(C(=O)O)CCCC(C)(C)C1CC2` (some centres not stated), the inhibitory constant (Ki) in series [8] stood at 3.3 µM.
Consider `COc1c(CC(C)OC(=O)c2c(C)cc(O)cc2C)c2c3c(CC(C)OC(=O)c4c(C)cc(O)cc4O)c(OC)c(=O)c4c(O)cc(OC)c(c5c(OC)cc(O)c(c1=O)c52)c43` (configuration not stated), for which the values for the IC50 against TCF4-CTNNB1 complex [6] and at TCF4-CTNNB1 complex [1] were 4.1 µM and 10 µM, respectively.
